PubChem BioAssay (NCI)
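Briefly, cells in 96-well plates were exposed to five compound concentrations for 48 h, and endpoints were estimated by linear interpolation. GI50 is the concentration that inhibits growth by half. TGI: total growth inhibition.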

How the values were obtained:
Assay in all cases: NCI anticancer screen, dose series, 48 h
HL-60(TB) leukemia = test system: HL-60(TB) leukemia
K-562 leukemia = test system: K-562 leukemia
MOLT-4 leukemia = test system: MOLT-4 leukemia
A549 NSCLC = test system: A549 NSCLC
CCRF-CEM leukemia = test system: CCRF-CEM leukemia
SK-MEL-2 melanoma = test system: SK-MEL-2 melanoma
HCT-116 colon = test system: HCT-116 colon
NCI-H23 lung = test system: NCI-H23 lung
LOX IMVI melanoma = test system: LOX IMVI melanoma
PC-3 prostate = test system: PC-3 prostate

Row | Compound | TGI (HL-60(TB) leukemia) | TGI (K-562 leukemia) | TGI (MOLT-4 leukemia) | TGI (A549 NSCLC) | TGI (CCRF-CEM leukemia) | TGI (SK-MEL-2 melanoma) | TGI (HCT-116 colon) | TGI (NCI-H23 lung) | TGI (LOX IMVI melanoma) | GI50 (HL-60(TB) leukemia) | GI50 (K-562 leukemia) | GI50 (MOLT-4 leukemia) | GI50 (A549 NSCLC) | GI50 (CCRF-CEM leukemia) | GI50 (SK-MEL-2 melanoma) | GI50 (HCT-116 colon) | GI50 (NCI-H23 lung) | GI50 (LOX IMVI melanoma) | GI50 (PC-3 prostate) | TGI (PC-3 prostate)
1 | CN(C)c1ccc2c(NCCCCCCNc3ccnc4cc(N(C)C)ccc34)ccnc2c1 | > 100 µM | > 100 µM | > 100 µM | > 100 µM | > 100 µM | 82.5 µM | > 100 µM | 27.2 µM | – | – | – | – | – | – | – | – | – | – | – | –
2 | Nc1cc(=O)[nH]c(SC2=NC(N)CC(O)C2)n1 (centres undefined) | – | > 100 µM | > 100 µM | – | > 100 µM | > 100 µM | – | > 100 µM | > 100 µM | – | – | – | – | – | – | – | – | – | – | –
3 | CCOP(=O)(OCC)C1CCCCOC1=O (centres undefined) | > 100 µM | > 100 µM | > 100 µM | > 100 µM | > 100 µM | > 100 µM | > 100 µM | > 100 µM | 40 µM | – | – | – | – | – | – | – | – | – | – | –
4 | CC(=O)[O][Pb]([O]C(C)=O)([c]1ccccc1)[c]1ccccc1 | > 100 µM | > 100 µM | > 100 µM | > 100 µM | > 100 µM | 3.75 µM | > 59.1 µM | 13.4 µM | 2.67 µM | > 100 µM | > 25.9 µM | 35 µM | > 100 µM | 16.2 µM | 1.73 µM | 4.81 µM | 2.35 µM | 1.19 µM | – | –
5 | C=C1C(=O)O[C@@H]2C1CC(=O)C(C)CC/C=C(\C)CCC[C@H](C)[C@H]2OC(C)=O (some centres undefined) | – | 15.3 µM | 35 µM | 38.7 µM | 4.75 µM | 45.5 µM | 3.62 µM | 29.5 µM | 6.22 µM | – | 3.52 µM | 10.9 µM | 19.6 µM | 2 µM | 17.6 µM | 1.62 µM | 13.9 µM | 2.15 µM | 13.7 µM | 30.6 µM
6 | CC(=O)OC1c2ccccc2CC2(OC(C)=O)c3ccccc3C12 (centres undefined) | – | > 100 µM | > 100 µM | > 100 µM | > 100 µM | > 100 µM | > 100 µM | > 100 µM | > 100 µM | – | – | – | – | – | – | – | – | – | – | > 100 µM
7 | C=C1C(=O)O[C@H]2C[C@@H](C)[C@@H]3CC(=O)OC[C@@]3(C)CC12 (some centres undefined) | – | 68.5 µM | 57.3 µM | > 100 µM | 55.6 µM | > 100 µM | > 100 µM | 62.5 µM | 90.5 µM | – | – | – | – | – | – | – | – | – | – | –
8 | CN(C)CCCNC(=O)c1cc(NC(=O)CCNS(=O)(=O)c2ccc3c(c2)C(=O)c2ccccc2C3=O)cn1C | – | > 100 µM | > 100 µM | > 100 µM | > 100 µM | > 100 µM | > 100 µM | > 100 µM | – | – | > 100 µM | > 100 µM | > 100 µM | > 100 µM | > 100 µM | > 100 µM | > 100 µM | – | > 100 µM | > 100 µM
9 | CC1CC2C(=O)NC(=O)C2c2[nH]c3ccccc3c21 (centres undefined) | > 100 µM | > 100 µM | > 100 µM | > 100 µM | > 100 µM | > 100 µM | > 100 µM | > 100 µM | > 100 µM | – | – | – | – | – | – | – | – | – | – | –
10 | COc1ccccc1[N-]C(C1=C([O-])c2ccccc2C1=O)c1ccccc1.COc1ccccc1[N-]C(C1=C([O-])c2ccccc2C1=O)c1ccccc1.[Cu+2] (centres undefined) | > 100 µM | > 100 µM | > 100 µM | 52.9 µM | > 100 µM | – | > 100 µM | 61.2 µM | 95.2 µM | 3.25 µM | 3.18 µM | 5.98 µM | 4.63 µM | 3.49 µM | – | 3.26 µM | 7.17 µM | 8.64 µM | – | –
11 | CC1Oc2cc3c(-c4c(O)cc(O)c5c(O)c6c(cc45)OC(C)C(C)C6=O)c(O)cc(O)c3c(O)c2C(=O)C1C (centres undefined) | 0.65 µM | 0.627 µM | 0.731 µM | 1.29 µM | 0.148 µM | 0.331 µM | 0.289 µM | 0.756 µM | – | – | – | – | – | – | – | – | – | – | – | 0.698 µM
12 | CN(C)CCNC(=O)c1cccn2c(=O)c3cc4ccccc4cc3nc12 | 9.73 µM | 40.8 µM | 8.23 µM | – | 32.6 µM | 1.32 µM | – | 1.01 µM | 0.286 µM | 0.36 µM | 0.208 µM | 0.0571 µM | – | 0.1 µM | 0.203 µM | – | 0.165 µM | 0.0624 µM | 0.194 µM | > 22 µM
13 | CN1CCc2c1nc(-c1ccccc1)c1c2N(C)CC1 | > 100 µM | > 100 µM | > 100 µM | > 100 µM | > 100 µM | > 100 µM | > 100 µM | > 100 µM | > 100 µM | – | – | – | – | – | – | – | – | – | – | –
14 | c1ccc2[nH]c(-c3ccc(N4CCN(c5ccc(-c6nc7ccccc7[nH]6)cc5)CC4)cc3)nc2c1 | > 100 µM | > 100 µM | > 100 µM | > 100 µM | > 100 µM | – | > 100 µM | > 100 µM | > 100 µM | > 100 µM | 38.4 µM | 34.9 µM | > 100 µM | 44.6 µM | – | 5.11 µM | > 100 µM | > 100 µM | > 100 µM | > 100 µM
15 | CCCC(O)[C@@H](O)c1ccc2c(c1O)C(=O)c1c(OC)cccc1C2=O (some centres undefined) | 42.9 µM | > 100 µM | 69.2 µM | > 100 µM | 85.7 µM | > 100 µM | > 100 µM | > 100 µM | 80.4 µM | – | – | – | – | – | – | – | – | – | – | –
16 | C=CCC(N[C@H](CO)C(C)C)c1cn(C(=O)OCC)c2ccccc12 (some centres undefined) | – | 25.8 µM | 34.7 µM | 82 µM | 70.2 µM | > 100 µM | 68.8 µM | 49.3 µM | 49.5 µM | – | 11.1 µM | 15.4 µM | 24.9 µM | 22.4 µM | 42.3 µM | 24.2 µM | 19.1 µM | 19.4 µM | 15.9 µM | 43.9 µM
17 | Nc1ncnc2sc(=S)c3c(c12)CCC3 | – | > 100 µM | 69.7 µM | > 100 µM | 79.5 µM | > 100 µM | > 100 µM | 56.8 µM | > 100 µM | – | 36.1 µM | 23.2 µM | 44.8 µM | 27.1 µM | 81.8 µM | 31.8 µM | 21.1 µM | 31.8 µM | 32.1 µM | > 100 µM
